Assay results as given in patent US11661398B2, “Cellular transport system for transferring a sulfonic acid construct carrying a cargo into the cytoplasm of a cell” (Scientist of Fortune, S.A., priority 2017, dated 2023).
Structures can show the parent of a compound that is named as a salt.

What was measured:
[1] = system: TK082; test: In vivo hydrolysis of sulfobutanoyl-p-nitroanilide and sulfobutanoyl-AMC; assay type: cell-based, E. coli; details: 0.5 mM compound, different plasmid combinations
Description: Strain TK082 was transformed with plasmids as indicated in the text and grown at 37° C. in MS minimal medium supplemented with 0.5% glucose, 1 mM MgSO4 and 0.4 mM L-leucine to an OD600 of 0.5. At that stage, the synthesis of PnGGT* and/or SsuABC was induced for 2 hours by adding 0.5 mM IPTG and 100 ng mL^−1 aTc. Following this synthesis period, cells were washed in the same medium to remove proteins that had been released into the medium by cell lysis. After an additional centrifugation step, cells were resuspended in MS minimal medium supplemented with 0.5% glucose, 1 mM MgSO4, 0.4 mM L-leucine, 0.5 mM IPTG, 100 ng mL^−1 aTc and 0.5 mM sulfobutanoyl-p-nitroanilide or sulfobutanoyl-AMC (see below for description of synthesis) and incubated in a Tecan Infinite 200 Pro plate reader at 37° C. To monitor cell density and the release of 4-nitroaniline, absorbance was constantly measured at 600 nm and 410 nm. The release of AMC was monitored by measuring the fluorescence at λex=350 nm and λem=450 nm. To determine the influence of competition for the sulfonate transporter SsuABC, different concentrations of pentanesulfonate (Sigma Aldrich) were added to the medium.

[2] = biological target: T1, EcGGT ΔN24 D433N (Escherichia coli, UniProt P18956, D433N); test: Colorimetric GGT assay in whole cell lysates; assay type: biochemical, E. coli; details: whole cell lysate, 4 mM substrate, 50 mM Tris-HCl (pH 9.0), 410 nm
T1 construct: made in house; host or cells: E. coli (pACT3 plasmid); assayed in whole cell lysate
Description: To test for the desired activity a colorimetric enzyme assay was chosen and the substrate sulfobutanoyl-p-nitroanilide was synthesized for this purpose. Hydrolysis of this colorless substrate by a GGT variant into sulfobutanoic acid and the yellow dye 4-nitroaniline can be quantified photometrically at 410 nm. For that, cytoplasmic GGT variants containing an N-terminal 6×His-tag were first expressed from E. coli (EcGGT ΔN24) and Pseudomonas nitroreducens (PnGGT ΔN24), as well as EcGGT ΔN24 D433N and the corresponding mutant variant PnGGT ΔN24 D405N. Position D405 of PnGGT was identified to fulfill the same function as position D433 of EcGGT by sequence alignment and homology modeling between EcGGT and PnGGT. Then the ability of whole cell lysates containing the respective enzymes was tested to hydrolyze L-glutamic acid γ-(3-carboxy-4-nitroanilide) or sulfobutanoyl-p-nitroanilide.

[3] = biological target: PnGGT ΔN24 (Pseudomonas nitroreducens, UniProt E0D5C2); test: Kinetic measurements with purified PnGGT ΔN24; assay type: biochemical
Description: (§1) For the experiments relating to the sulfonate based synthetic transport system, purification of PnGGT ΔN24 and PnGGT ΔN24 D405N containing an N-terminal 6×His-tag was performed according to previous reports (Van Dyke et al., 1992) using Ni-NTA Superflow (Qiagen, Hilden, Germany). For kinetic studies, PnGGT variants were purified with the aid of the 6×His-tag located at the N-terminal end of the large subunit following the same procedure. To exchange the buffer, purified proteins were dialyzed against 50 mM Tris/HCl (pH 7.0).
(§2) To determine the kinetic parameters of PnGGT ΔN24 and PnGGT ΔN24 D405N the purified enzymes were preincubated in 50 mM Tris-HCl (pH 9.0). To start the reaction, varying concentrations of the substrates L-glutamic acid γ-(3-carboxy-4-nitroanilide) or sulfobutanoyl-p-nitroanilide were added to the mixtures. The results were evaluated using GraphPad Prism (GraphPad Software, La Jolla, Calif., USA).

[4] = system: PnGGT* P505T; test: Sulfobutanoyl-p-nitroanilide hydrolysis kinetics; assay type: biochemical, Pseudomonas nitroreducens; details: 50 mM Tris/HCl (pH 7.0)
Description: FIG. 31. Sulfobutanoyl-p-nitroanilide hydrolysis kinetics of PnGGT* P505T. The kinetic parameters of PnGGT* P505T were determined in 50 mM Tris/HCl (pH 7.0) with the substrate sulfobutanoyl-p-nitroanilide added to the following concentrations: 50, 100, 250, 500, 750, 1000, 1500 and 2000 μM. […] Fitting of the kinetic data was performed with SigmaPlot v.12.2. Dots represent the average of three independent measurements with standard deviations shown as error bars.
as §1

[5] = biological target: T2, PnGGT ΔN24 D405N (Pseudomonas nitroreducens, UniProt E0D5C2, D405N); test: Kinetic measurements with purified PnGGT ΔN24 D405N; assay type: biochemical; details: purified enzyme, 50 mM Tris-HCl (pH 9.0)
T2 sequence (E0D5C2 with tags, fused parts or gaps D405N): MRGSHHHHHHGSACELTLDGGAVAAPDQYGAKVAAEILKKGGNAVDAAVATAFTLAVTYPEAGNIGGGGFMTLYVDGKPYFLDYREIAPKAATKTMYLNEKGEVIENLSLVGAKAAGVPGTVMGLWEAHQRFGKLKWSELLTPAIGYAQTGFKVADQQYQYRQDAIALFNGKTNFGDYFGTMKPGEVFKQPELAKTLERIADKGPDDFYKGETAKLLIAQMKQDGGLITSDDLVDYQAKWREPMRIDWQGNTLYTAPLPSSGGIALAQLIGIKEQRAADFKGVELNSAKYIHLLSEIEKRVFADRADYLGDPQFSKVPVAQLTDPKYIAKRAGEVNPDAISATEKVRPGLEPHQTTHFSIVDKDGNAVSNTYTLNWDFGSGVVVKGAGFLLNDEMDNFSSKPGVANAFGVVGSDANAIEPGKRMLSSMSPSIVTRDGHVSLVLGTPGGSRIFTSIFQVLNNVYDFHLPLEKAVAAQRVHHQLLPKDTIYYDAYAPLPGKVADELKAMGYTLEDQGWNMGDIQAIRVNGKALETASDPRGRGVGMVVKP
Description: as §1, §2

O=C(CCCS(=O)(=O)O)Nc1ccc([N+](=O)[O-])cc1 [sodium salt]
in vivo release of 4-nitroaniline from the compound [1]: only released from the SBA moiety when SsuABC and PnGGT* were simultaneously synthesized
hydrolysis of substrate [2]: acquired the ability to hydrolyze
hydrolysis of substrate by purified enzyme [3]: no detectable activity
improvement of catalytic efficiency (kcat/KM) over PnGGT* [4]: 39%
improvement of kcat over PnGGT* [4]: 8%
lower K (KM) over PnGGT* ([4]; 50-2000 μM substrate): 27%
Km [5]: 767 µM
Vmax [5]: 10.35 ± 0.28 µmol/min/mg
kcat [5]: 10.2 s⁻¹
